Literature values, collected in US9226984B2, “Entrapment of radionuclides in nanoparticle compositions” (Technical University of Denmark and Rigshospitalet, priority 2010, dated 2016).

Conditions: ionophore-assisted loading

Structure (SMILES): Oc1cccc2cccnc12 [oxine, 8-hydroxyquinoline]
- 64Cu2+ retention of liposomes loaded with the ionophore: unstable liposomes
